# Assay results published in PubChem BioAssay (NCI).
#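 Tested at 5 concentrations; 48 h exposure; 96-well plates; endpoints linearly interpolated, else capped at highest concentration. Abbreviation: GI50, concentration required for 50% inhibition of growth. Definition used: TGI = concentration required for complete inhibition of growth.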
# Key:
# Assay in all cases: NCI-60 cell line screen, 48 h
# SNB-19 CNS = system: SNB-19 CNS
# OVCAR-8 ovarian = system: OVCAR-8 ovarian
# OVCAR-3 ovarian = system: OVCAR-3 ovarian
# DMS 114 small cell lung = system: DMS 114 small cell lung
# IGROV1 ovarian = system: IGROV1 ovarian
# M19-MEL melanoma = system: M19-MEL melanoma
# K-562 leukemia = system: K-562 leukemia
# SF-295 CNS = system: SF-295 CNS
# SNB-75 CNS = system: SNB-75 CNS
# HT29 colon = system: HT29 colon
# UO-31 renal = system: UO-31 renal
# LOX IMVI melanoma = system: LOX IMVI melanoma
# MALME-3M melanoma = system: MALME-3M melanoma
Structure (SMILES),TGI (SNB-19 CNS) [µM],TGI (OVCAR-8 ovarian) [µM],TGI (OVCAR-3 ovarian) [µM],TGI (DMS 114 small cell lung) [µM],TGI (IGROV1 ovarian) [µM],TGI (M19-MEL melanoma) [µM],TGI (K-562 leukemia) [µM],TGI (SF-295 CNS) [µM],TGI (SNB-75 CNS) [µM],TGI (HT29 colon) [µM],TGI (UO-31 renal) [µM],TGI (LOX IMVI melanoma) [µM],TGI (MALME-3M melanoma) [µM],GI50 (SNB-19 CNS) [µM],GI50 (OVCAR-8 ovarian) [µM],GI50 (HT29 colon) [µM],GI50 (OVCAR-3 ovarian) [µM],GI50 (LOX IMVI melanoma) [µM],GI50 (K-562 leukemia) [µM],GI50 (SF-295 CNS) [µM]
COC(=O)C1c2cc3c(c(O)c2C(O)CC1(C)O)C(=O)c1c(O)cc2c(c1C3=O)OC1OC2(C)C(O)C(N(C)C)C1O (stereo unspecified),> 100,> 100,> 100,> 100,> 39.7,> 100,> 100,> 100,> 20.9,,,,,,,,,,,
CCN(CC)CCO[Si](OCCN(CC)CC)(OCCN(CC)CC)OCCN(CC)CC,> 100,> 100,> 100,> 100,> 100,> 100,,> 100,> 100,> 100,> 100,> 100,> 100,,,,,,,
CCOC(=O)Cn1c(=O)c(C)cn(COCCO)c1=O,> 100,> 100,> 100,,> 100,,> 100,,> 100,> 100,> 100,> 100,> 100,,,,,,,
CCOC(C)OC1CC(n2cc(C)c(=O)[nH]c2=O)OC1CO (stereo unspecified),> 100,> 100,> 100,> 100,> 100,> 100,> 100,> 100,,> 100,> 100,> 100,> 100,,,,,,,
O=C(CCC1CCCCN1)Nc1ccc2c(c1)C(=O)c1ccc(NC(=O)CCN3CCCCC3)cc1C2=O (stereo unspecified),,9.73,8.37,2.97,31.2,5.71,4.97,20.8,16.4,10.8,2.68,2.66,2.81,,,,,,,
CC1OC(=O)C(C(C)C)NC(=O)C(C(C)C)OC(=O)C(C(C)C)NC(=O)C(C)OC(=O)C(C(C)C)NC(=O)C(C(C)C)OC(=O)C(C(C)C)NC(=O)C(C)OC(=O)C(C(C)C)NC(=O)C(C(C)C)OC(=O)C(C(C)C)NC1=O (stereo unspecified),1.25,3.46,0.0148,0.0191,5.34,6.28,6.36,,0.00378,3.4,0.0541,,3.63,< 0.0001,< 0.0001,< 0.0001,< 0.0001,< 0.0001,< 0.0001,< 0.0001
CN1CN(C(=O)N2CN(C)C(=O)N(C)C2)CN(C)C1=O,> 100,> 100,> 100,> 100,> 100,> 100,> 100,> 100,> 100,> 100,> 100,> 100,> 100,,,,,,,
